In the oligonucleotide strings, read from the 5' end, every base follows the letter of its sugar. An asterisk marks phosphorothioate; unmarked linkages are phosphodiester. Other units and linkages are bracketed, terminal groups are in braces. A string of capitals states the bases alone. d = 2'-deoxy (DNA)
Tests used:
[1] = tested on: HUP-T3 pancreatic cancer cells; assay: Cellular proliferation of HUP-T3 pancreatic cancer cells in vitro
Source text: (§1) The aim of the study was to determine the effect of AP12009 (trabedersen) treatment in combination with 5-Fluorouracil (5-FU) on TGFβ2 secretion and on cellular proliferation of HUP-T3 pancreatic cancer cells and WiDr colon cancer cells in vitro.

TGFβ2 [2] = assay: TGFβ2 secretion/expression in HUP-T3 pancreatic cancer cells; type: cell-based
Source text: as §1

WiDr colon cancer cells = assay: Cellular proliferation of WiDr colon cancer cells in vitro; type: cell-based
Source text: as §1

TGFβ2 [3] = assay: TGFβ2 secretion/expression in WiDr colon cancer cells; type: cell-based
Source text: as §1

A-172 glioma cells [4] = assay: Migration of A-172 glioma cells; type: cell-based
Method: (§2) A-172 glioma cells were treated with a combination of AP12009 (trabedersen) 0 to 10 μM) and different concentrations of TMZ (temozolomide) for 7 days (treatment schedule 2*2/1*3 d).

A-172 glioma cells [5] = assay: Proliferation of A-172 glioma cells; type: cell-based
Method: as §2
(§3) In summary there is no clear beneficial effect in combining AP12009 with TMZ in A-172 cells.

TGFβ2 [6] = assay: TGFβ2 secretion in A-172 glioma cells; type: cell-based
Method: as §2, §3

A-172 glioma cells [7] = assay: A-172 glioma cells, alternative AP12009/TMZ treatment schedules (readout not stated); type: cell-based
Method: as §2

[8] = Preclinical toxicology, LOAEL in Cynomolgus monkeys; type: in vivo
Method: (§4) The clinical starting dose for the 7-days-on and 7-days-off schedule was based on the Lowest-Observed-Adverse-Effect-Level (LOAEL) devoid of severe toxicity in Cynomolgus monkeys as the most relevant species. This LOAEL of 4 mg/kg body weight (b.w.)/day is equivalent to approximately 1.3 mg/kg b.w./day or 48 mg/m^2/day on a body surface area basis in human adults. These numbers were rounded down and the safe starting dose was defined at 40 mg/m^2/day, equivalent to approximately 1 mg/kg b.w./day in humans. An alternative approach would have been based on the lowest lethal dose (LLD) of 300 mg/kg b.w. obtained in the acute single dose toxicity study in mice (in rats it was determined at 1000 mg/kg), at which 1 of 10 mice died (LLD10). According to the standard method, 10% of this dose (30 mg/kg) on a body surface area basis would then be defined as the clinical starting dose resulting in 90 mg/m^2/day. In the end, the lower of the two alternatives was chosen as starting dose.

[9] = Acute single dose toxicity study in mice; type: in vivo; conditions: 1 of 10 mice died (LLD10)
Method: as §4

[10] = Acute single dose toxicity in rats; type: in vivo
Method: as §4

[11] = AP12009 in combination with TMZ
[12] = converted from Cynomolgus LOAEL

trabedersen: TGF-beta2 specific phosphorothioate antisense oligodeoxynucleotide with the sequence 5′-CGGCATGTCTATTTTGTA-3′ (SEQ ID No: 1) (antisense dC*dG*dG*dC*dA*dT*dG*dT*dC*dT*dA*dT*dT*dT*dT*dG*dT*dA)
effect on proliferation of adding AP12009 to 5-FU compared with 5-FU alone [1]: did not result in any additional inhibition of proliferation | cell proliferation, % of untreated control ([1]; HUP-T3, 10 μM AP12009 monotherapy): 53% | TGFβ2 expression, % of untreated control (TGFβ2 [2]; 10 μM AP12009 monotherapy): 42% | combination effect on inhibition of TGFβ2 expression (TGFβ2 [2]; 5-FU added to 10 μM AP12009): sub-additive or even antagonistic effects | cell proliferation, % of untreated control (WiDr colon cancer cells; 10 μM AP12009): 76% | combination effect on cell proliferation (WiDr colon cancer cells; 10 μM AP12009 and 5-FU): sub-additive effects | TGFβ2 expression, % of untreated control (TGFβ2 [3]; 10 μM AP12009): 54% | combination effect on TGFβ2 expression (TGFβ2 [3]; 10 μM AP12009 and 5-FU): sub-additive effects | effect on migration compared with untreated control (A-172 glioma cells [4]; AP12009 10 μM monotherapy): did not affect migration | effect of AP12009 on TMZ effect on migration (A-172 glioma cells [4]; [11]): did not influence the effects of TMZ on migration | combination effect on cell proliferation (A-172 glioma cells [5]; [11]): no reproducible beneficial effect | effect on cell proliferation (A-172 glioma cells [5]; monotherapy, 7 days): slightly reduced | combination effect on inhibition of TGFβ2 secretion (TGFβ2 [6]; [11]): additive effect | effect on TGFβ2 (TGFβ2 [6]; monotherapy, 7 days): strongly reduced | benefit of single TMZ treatment combined with 7 day AP12009 treatment (A-172 glioma cells [7]; TMZ day 0 for one day, AP12009 7 days (2*1/1*2/1*3 d)): did not show any benefit or disadvantage | benefit of pre-treatment with AP12009 (A-172 glioma cells [7]; pre-treatment (1*2/1*3 d) with AP12009 before combined AP12009 and TMZ (2*2/1*3 d)): did not show any benefit | Lowest-Observed-Adverse-Effect-Level (LOAEL) devoid of severe toxicity ([8]; Cynomolgus monkeys): 4 mg/kg body weight (b.w.)/day | LOAEL, equivalent in human adults [8, 12]: approximately 1.3 mg/kg b.w./day | LOAEL, equivalent in human adults on a body surface area basis [8, 12]: ~48 mg/m^2/day | lowest lethal dose (LLD) [9]: 300 mg/kg b.w. | lowest lethal dose (LLD) [10]: 1000 mg/kg
